A word on the EC50: it is the concentration that produces a half-maximal response. A low value points to higher potency in that assay. As a reminder, the CC50 is the concentration that lowers cell viability or growth by half. Low values mean greater toxicity to the cells, high ones lower toxicity to the cells.

This passage reports EC50, Ratio and CC50 results from US20120252721A1 (priority 2011, published 2012).

The test system of data set [1] is HCV genotype 1b replicon, NS5B M423T. The data set is described as follows: Luciferase replicon transient transfection assay, genotype 1b NS5B M423T. It is filed as cell-based, hepatitis C virus. The procedure:
(§1) The luciferase replicon transient transfection assay measures the ability of a test compound to inhibit the replication of a transiently-transfected HCV luciferase-bearing wild-type or mutant replicon in cured human hepatoma cells (Huh7.5). The inhibition of HCV replication was measured by quantification of luciferase protein expression. This assay has been validated using a panel of genotype 1a and 1b replicons bearing mutations known to be associated with resistance to BMS-790052. Briefly, subconfluent Huh7.5 cells were electroporated with 10 μg of wild-type or mutant luciferase-bearing HCV replicon RNA. The cells were then seeded in 96-well opaque white plates at 3×10^4 cells/well in 150 μL/well and incubated for 4 hrs at 37° C./5% CO2. […] The plates were agitated on a rotating platform at room temperature for 3 min and read in a Victor^3V microplate reader (Perkin-Elmer) using a 700 nm cut-off filter with a 1 sec read time. EC50 values were calculated from dose response curves from the resulting best-fit equations determined by Microsoft Excel and XLfit 4.1 software.
(§2) To determine the replication capacity of each mutant relative to the wild-type parental replicon, transfected cells were plated on two plates and were not treated with compound. Luciferase activity was measured at time points of 4 hrs and 4 days after plating for each replicon. […]

Data set [2] relates to HCV genotype 1b replicon, NS5B S282T. The data set is described as follows: Luciferase replicon transient transfection assay, genotype 1b NS5B S282T. It is filed as cell-based, hepatitis C virus. The procedure:
as §1, §2
In general terms: Replicon systems follow genome replication, usually without infectious particles.

The subject of data set [3] is 1a-luc Q30R (HCV genotype 1a replicon). The data set is described as follows: Luciferase replicon transient transfection assay, 1a-luc Q30R. It is filed as cell-based, hepatitis C virus. The following applies: for EC50: Hepatitis C virus, 96 h, Huh7.5 cells, 4 days. The procedure:
(§3) The luciferase replicon transient transfection assay measures the ability of a test compound to inhibit the replication of a transiently-transfected HCV luciferase-bearing wild-type or mutant replicon in cured human hepatoma cells (Huh7.5). The inhibition of HCV replication was measured by quantification of luciferase protein expression. This assay has been validated using a panel of genotype 1a and 1b replicons bearing mutations known to be associated with resistance to BMS-790052. Briefly, subconfluent Huh7.5 cells were electroporated with 10 μg of wild-type or mutant luciferase-bearing HCV replicon RNA. The cells were then seeded in 96-well opaque white plates at 3×10^4 cells/well in 150 μL/well and incubated for 4 hrs at 37° C./5% CO2. Ten 1:5 serial dilutions of each test compound were made in media (DMEM containing glucose, L-glutamine and sodium pyruvate, 10% fetal bovine serum, 100 IU/mL penicillin, 100 μg/mL streptomycin, 2 mM GlutaMAX, and 1×MEM non-essential amino acids (Mediatech, Inc. and Invitrogen Corp.)) at concentrations that were 4× higher than the final concentrations to be tested and 50 μL/well was added to the transfected cells. Untreated, mock-transfected cells served as a negative control of luciferase expression. The plates were incubated at 37° C./5% CO2 for 4 days whereupon the media was removed and 50 μL of ONE-glo luciferase substrate (Promega) was added to each well. The plates were agitated on a rotating platform at room temperature for 3 min and read in a Victor^3V microplate reader (Perkin-Elmer) using a 700 nm cut-off filter with a 1 sec read time. EC50 values were calculated from dose response curves from the resulting best-fit equations determined by Microsoft Excel and XLfit 4.1 software.

The subject of data set [4] is 1a-luc L31F (HCV genotype 1a replicon). The data set is described as follows: Luciferase replicon transient transfection assay, 1a-luc L31F. It is filed as cell-based, hepatitis C virus. The following applies: for EC50: Hepatitis C virus, 96 h, Huh7.5 cells, 4 days. The procedure: as §3
In data set [5] the test system is HCV genotype 1a replicon, NS5A E295G. The data set is described as follows: Luciferase replicon transient transfection assay, genotype 1a NS5A E295G. The following applies: for EC50: Hepatitis C virus, genotype 1a, HCV region NS5A, mutation E295G. The data set is classed as cell-based, hepatitis C virus. The protocol:
as §3

Data set [6] concerns ZS11-luc replicon, NS3-A156T. The data set is described as follows: Luciferase replicon transient transfection assay, NS3-A156T. It is filed as cell-based, hepatitis C virus. The following applies: for EC50: Hepatitis C virus. The procedure: as §3
(§4) To determine the replication capacity of each mutant relative to the wild-type parental replicon, transfected cells were plated on two plates and were not treated with compound. Luciferase activity was measured at time points of 4 hrs and 4 days after plating for each replicon. Replication capacity was calculated by dividing the day 4 CPS by the 4 hour CPS for each replicon and determining the percentage present for each mutant replicon relative to wild-type replicon values. The NS3, NS4B, and NS5B mutants were prepared and tested according to the methods described herein.

In data set [7] the test system is 1a-luc Q30K (HCV genotype 1a replicon). The data set is described as follows: Luciferase replicon transient transfection assay, 1a-luc Q30K. The data set is classed as cell-based, hepatitis C virus. The conditions noted are these: for EC50: Hepatitis C virus, 96 h, Huh7.5 cells, 4 days. The procedure:
as §3

Data set [8] relates to 1a-luc P32L (HCV genotype 1a replicon). The data set is described as follows: Luciferase replicon transient transfection assay, 1a-luc P32L. It is filed as cell-based, hepatitis C virus. The conditions noted are these: for EC50: Hepatitis C virus, 96 h, Huh7.5 cells, 4 days. The procedure:
as §3

The test system of data set [9] is HCV genotype 1b replicon, NS5B M414T. The data set is described as follows: Luciferase replicon transient transfection assay, genotype 1b NS5B M414T. It is filed as cell-based, hepatitis C virus. The procedure: as §1, §2
For data set [10], the system named is HCV genotype 1a replicon, NS4B E15G. The data set is described as follows: Luciferase replicon transient transfection assay, genotype 1a NS4B E15G. It is filed as cell-based, hepatitis C virus. The conditions noted are these: for EC50: Hepatitis C virus, HCV region NS4B, mutation E15G; for Ratio: NS4B E15G. The procedure:
as §3, §4

Another data set is described as follows: in vitro. The data set is classed as cell-based, human. The following applies: human; Table 1B, cellular viability. An outline of the steps: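 Cytotoxicity counter-screen in which the H1a-luc or Zluc cells were compound-treated and viability was read with the CellTiter 96 AQueous One (MTS) reagent by absorbance at 490 nm. CC50 values came from curve fitting.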

Turning to `COC(=O)N[C@H](C(=O)N1CCC[C@H]1c1nc2cc(-c3csc4c(-c5ccc(-c6cnc([C@@H]7CCCN7C(=O)[C@H](NC(=O)OC)c7ccccc7)[nH]6)cc5)csc34)ccc2[nH]1)C(C)C` [Compound A169, [(S)-1-((S)-2-{6-[6-(4-{(S)-2-[1-((R)-2-methoxycarbonylamino-2-phenyl-acetyl)-pyrrolidin-2-yl]-3H-imidazol-4-yl}-phenyl)-thieno[3,2-b]thiophen-3-yl]-1H-benzoimidazol-2-yl}-pyrrolidine-1-carbonyl)-2-methyl-propyl]-carbamic acid methyl ester], the concentration giving a half-maximal response (EC50) in data set [1] (Hepatitis C virus, genotype 1b, NS5B mutation M423T (confers resistance to Thiophene)) amounted to 0.002 nM; in [2] (Hepatitis C virus, genotype 1b, NS5B mutation S282T (confers resistance to 2′-C-Methylnucleoside)) it was 0.0014 nM; in [3] it was 0.02 nM; in data set [4], 0.15 nM; in data set [5], 0.004 nM; in data set [6], 0.0018 nM. The concentration giving a half-maximal response (EC50) in data set [7] came to 0.7 nM; in [8], 0.4 nM; in [9] (Hepatitis C virus, genotype 1b, NS5B mutation M414T (confers resistance to Benzothiadiazine)), 0.0018 nM; in data set [10] it was 0.003 nM. The Ratio in [1] ({}) amounted to 1.22; in [2] ({}), 0.83; in data set [3] it was 10; in [4] it was 68; in [5] it was 1.62; in data set [6] it was 1.09. The Ratio in data set [7] is recorded as 310; in data set [8] it was 173; in data set [9] ({}), 1.05; in data set [10], 1.52.
For `COC(=O)N[C@H](C(=O)N1CCC[C@H]1c1ncc(-c2ccc(-c3csc4c(-c5ccc6[nH]c([C@@H]7CCCN7C(=O)[C@H](NC(=O)OC)c7ccccc7)nc6c5)csc34)cc2)[nH]1)C(C)C` [Compound A172, [(S)-1-((S)-2-{5-[4-(6-{(S)-2-[1-((R)-2-Methoxycarbonylamino-2-phenyl-acetyl)-pyrrolidin-2-yl]-3H-benzoimidazol-5-yl}-thieno[3,2-b]thiophen-3-yl)-phenyl]-1H-imidazol-2-yl}-pyrrolidine-1-carbonyl)-2-methyl-propyl]-carbamic acid methyl ester], the Ratio in data set [3] came to 10; in data set [4] it was 67; in data set [5], 1.67; in [6], 1.14; in data set [7] it was 317; in data set [8] it was 173. Moreover, the Ratio in data set [10] is recorded as 1.68. In addition, the concentration for a half-maximal effect (EC50) was 0.04 nM in [3]; 0.3 nM in [4]; 0.006 nM in [5]; 0.0026 nM in data set [6]; 1 nM in [7]; 0.7 nM in data set [8]. In [10], this compound had an EC50 of 0.006 nM.
In the case of `COC(=O)N[C@H](C(=O)N1CCC[C@H]1c1ncc(-c2ccc(-c3csc4c(-c5cnc([C@@H]6CCCN6C(=O)[C@@H](NC(=O)OC)C(C)C)[nH]5)csc34)cc2)[nH]1)C(C)C` [Compound A15, [(S)-1-((S)-2-{4-[4-(6-{2-[(S)-1-((S)-2-methoxycarbonylamino-3-methyl-butyryl)-pyrrolidin-2-yl]-3H-imidazol-4-yl}-thieno[3,2-b]thiophen-3-yl)-phenyl]-1H-imidazol-2-yl}-pyrrolidine-1-carbonyl)-2-methyl-propyl]-carbamic acid methyl ester], the CC50 in the data set “in vitro” is 10000 to 75000 nM.
